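Test compounds were applied to cells in 96-well plates for 48 hours at 5 doses. GI50 marks 50% less growth.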 Active and inactive are the calls of the source. Cut-off read from the data, not from the text of the source: active = GI50 up to about 1.1 µM and inactive = higher.
Columns and labels:
Experiment in all cases: NCI-60 cell line screen, 48 h
BT-549 = tested on: BT-549
DU-145 = tested on: DU-145
EKVX = tested on: EKVX
HCC 2998 = tested on: HCC 2998
HCT-116 = tested on: HCT-116
HOP-62 = tested on: HOP-62
IGROV-1 = tested on: IGROV-1
KM12 = tested on: KM12
MCF7 = tested on: MCF7
MDA-N = tested on: MDA-N
NCI-H23 = tested on: NCI-H23
OVCAR-4 = tested on: OVCAR-4
RXF 393 = tested on: RXF 393
SF-268 = tested on: SF-268
SF-539 = tested on: SF-539
SK-MEL-28 = tested on: SK-MEL-28
SW-620 = tested on: SW-620
T47D = tested on: T47D
TK-10 = tested on: TK-10
UO-31 = tested on: UO-31

| SMILES | GI50 (BT-549) | GI50 (DU-145) | GI50 (EKVX) | GI50 (HCC 2998) | GI50 (HCT-116) | GI50 (HOP-62) | GI50 (IGROV-1) | GI50 (KM12) | GI50 (MCF7) | GI50 (MDA-N) | GI50 (NCI-H23) | GI50 (OVCAR-4) | GI50 (RXF 393) | GI50 (SF-268) | GI50 (SF-539) | GI50 (SK-MEL-28) | GI50 (SW-620) | GI50 (T47D) | GI50 (TK-10) | GI50 (UO-31) |
| --- | --- | --- | --- | --- | --- | --- | --- | --- | --- | --- | --- | --- | --- | --- | --- | --- | --- | --- | --- | --- |
| c1ccc(CCN(Cc2nc3ccccc3[nH]2)Cc2nc3ccccc3[nH]2)cc1 | 12.1 µM (inactive) | 14.4 µM (inactive) | 39.1 µM (inactive) | 16.9 µM (inactive) | 4.67 µM (inactive) | 11.3 µM (inactive) | 8.15 µM (inactive) | 12.3 µM (inactive) | 11.7 µM (inactive) | 16.2 µM (inactive) | 16 µM (inactive) | 17.5 µM (inactive) | 13.3 µM (inactive) | 13.6 µM (inactive) | 20.7 µM (inactive) | 13.7 µM (inactive) | 10.3 µM (inactive) | 1.79 µM (inactive) | 16.3 µM (inactive) | 10.9 µM (inactive) |
| c1ccc2c3c(ccc2c1)CSCc1ccc2ccccc2c1-3 | > 100 µM (inactive) | > 100 µM (inactive) | > 100 µM (inactive) | > 100 µM (inactive) | > 100 µM (inactive) | > 100 µM (inactive) | > 100 µM (inactive) | > 100 µM (inactive) | > 100 µM (inactive) | > 100 µM (inactive) | > 100 µM (inactive) | 26.8 µM (inactive) | > 100 µM (inactive) | > 100 µM (inactive) | 54.1 µM (inactive) | > 100 µM (inactive) |  | > 100 µM (inactive) | > 100 µM (inactive) | > 100 µM (inactive) |
| CCC(C)C(NC(=O)C(CCCCN)NC(=O)C(NC(=O)C(CCC(N)=O)NC(=O)C(CCCNC(=N)N)NC(C)=O)C(C)CC)C(=O)NC(Cc1c[nH]c2ccccc12)C(=O)NC(Cc1ccccc1)C(=O)NC(CCC(N)=O)C(=O)NC(CC(N)=O)C(=O)NC(CCCNC(=N)N)C(=O)NC(CCCNC(=N)N)C(=O)NC(CCSC)C(=O)NC(CCCCN)C(=O)NC(Cc1c[nH]c2ccccc12)C(=O)NC(CCCCN)C(=O)NC(CCCCN)C(N)=O (configuration not stated) | > 50 µM (inactive) | > 50 µM (inactive) | > 50 µM (inactive) | > 50 µM (inactive) | > 50 µM (inactive) | 39.6 µM (inactive) | > 50 µM (inactive) | 14.5 µM (inactive) | 29.8 µM (inactive) | > 50 µM (inactive) | > 50 µM (inactive) | > 50 µM (inactive) | > 50 µM (inactive) | 45.1 µM (inactive) | 19.7 µM (inactive) | > 50 µM (inactive) | > 50 µM (inactive) | 16.3 µM (inactive) | > 50 µM (inactive) |  |
| CCOC(=O)/C=C(/C(=O)OCC)n1ccc(=O)[nH]c1=O | 12.2 µM (inactive) | 15.5 µM (inactive) | 4.86 µM (inactive) | 16.5 µM (inactive) | 2.48 µM (inactive) | 19.6 µM (inactive) | 15.2 µM (inactive) | 17.6 µM (inactive) | 4.19 µM (inactive) | 10.8 µM (inactive) | 10.4 µM (inactive) | 8.61 µM (inactive) | 4.21 µM (inactive) | 15.6 µM (inactive) | 18.9 µM (inactive) | 6.56 µM (inactive) | 1.86 µM (inactive) | 3.4 µM (inactive) | 3.73 µM (inactive) | 14 µM (inactive) |
| CCNC1=C(NC(=O)c2ccc(OC)cc2)C(=O)c2ccccc2C1=O | 63.1 µM (inactive) | > 100 µM (inactive) | > 100 µM (inactive) | 37.5 µM (inactive) | 36.3 µM (inactive) | > 100 µM (inactive) | 72.1 µM (inactive) | 49.9 µM (inactive) | 51.8 µM (inactive) | 37.2 µM (inactive) | 43.6 µM (inactive) | 34.7 µM (inactive) | 28.5 µM (inactive) | > 100 µM (inactive) | 56.8 µM (inactive) | > 100 µM (inactive) | 44 µM (inactive) | 66.1 µM (inactive) | > 100 µM (inactive) |  |
| CN(CCNC(=O)c1nn(-c2ccc(Cl)cc2Cl)c2c1Cc1ccccc1-2)CCNC(=O)c1nn(-c2ccc(Cl)cc2Cl)c2c1Cc1ccccc1-2 | 7.38 µM (inactive) | 4.69 µM (inactive) | 20 µM (inactive) | 1.75 µM (inactive) | 2.1 µM (inactive) | 5.21 µM (inactive) | 4.53 µM (inactive) | 3.49 µM (inactive) | 2.56 µM (inactive) | 2.25 µM (inactive) | 5.09 µM (inactive) | 2.1 µM (inactive) | 2.25 µM (inactive) | 12.1 µM (inactive) | 1.85 µM (inactive) | 1.97 µM (inactive) | 1.86 µM (inactive) | 3.77 µM (inactive) | 6.31 µM (inactive) | 2.94 µM (inactive) |
| CC(=O)Oc1cccc2c(/C=N/NC(N)=S)ncc(C)c12 | 1.28 µM (inactive) | 0.347 µM (active) | 4.72 µM (inactive) | 0.818 µM (active) | 1.96 µM (inactive) | 1.07 µM (active) | 2.99 µM (inactive) | 0.895 µM (active) | 0.603 µM (active) | 3.59 µM (inactive) | 0.746 µM (active) | 7.41 µM (inactive) | 4.15 µM (inactive) | 0.357 µM (active) | 0.207 µM (active) | 13.2 µM (inactive) | 4.59 µM (inactive) | 1.47 µM (inactive) | 7.64 µM (inactive) | 1.05 µM (active) |
| COc1cc(COC(=O)NC(Cc2cccs2)C(=O)O)c([N+](=O)[O-])cc1OC (configuration not stated) | > 100 µM (inactive) | > 100 µM (inactive) | > 100 µM (inactive) | > 100 µM (inactive) | > 100 µM (inactive) | > 100 µM (inactive) | > 100 µM (inactive) | > 100 µM (inactive) | > 100 µM (inactive) | > 100 µM (inactive) | > 100 µM (inactive) |  | > 100 µM (inactive) | > 100 µM (inactive) | > 100 µM (inactive) | > 100 µM (inactive) | > 100 µM (inactive) | > 100 µM (inactive) | > 100 µM (inactive) | > 100 µM (inactive) |
| Cc1cc(S(=O)(=O)Nc2nc(N)nc(N3CCOCC3)n2)c(SCC(=O)O)cc1Cl | > 10 µM (inactive) | > 10 µM (inactive) | > 10 µM (inactive) | > 10 µM (inactive) | > 10 µM (inactive) | > 10 µM (inactive) | > 10 µM (inactive) | > 10 µM (inactive) | > 10 µM (inactive) | > 10 µM (inactive) | > 10 µM (inactive) | > 10 µM (inactive) | > 10 µM (inactive) | > 10 µM (inactive) | > 10 µM (inactive) | > 10 µM (inactive) | > 10 µM (inactive) | > 10 µM (inactive) | > 10 µM (inactive) | > 10 µM (inactive) |
| O=C1C=C(Cl)C(=O)C(c2ccc(Cl)cc2)=C1 | 23.8 µM (inactive) | 22 µM (inactive) | 14.8 µM (inactive) | 18.1 µM (inactive) | 19.3 µM (inactive) | 21.1 µM (inactive) | 15 µM (inactive) | 32.3 µM (inactive) | 16.3 µM (inactive) | 13.3 µM (inactive) | 23.2 µM (inactive) | 17.7 µM (inactive) | 18.4 µM (inactive) | 19.7 µM (inactive) | 16.9 µM (inactive) | 20.2 µM (inactive) | 25.5 µM (inactive) | 13.7 µM (inactive) | 21.2 µM (inactive) | 14.8 µM (inactive) |
| COc1ccc(C2CC(c3ccc4ccccc4c3O)=NN2)cc1OC (configuration not stated) | 23.5 µM (inactive) | 77.6 µM (inactive) |  | 45.6 µM (inactive) | 38.6 µM (inactive) | 54.6 µM (inactive) | 83.4 µM (inactive) | 48.4 µM (inactive) | 32.7 µM (inactive) | 21 µM (inactive) | 49.9 µM (inactive) | 92.7 µM (inactive) | 74.1 µM (inactive) | 47.5 µM (inactive) | 31.3 µM (inactive) | 76.4 µM (inactive) | 39.7 µM (inactive) | 45 µM (inactive) | 95.1 µM (inactive) | 46.2 µM (inactive) |
| CC(=O)OC1CC2c3cccc4c3C(CC2N(C)C1=O)CN4C(=O)c1ccccc1 (configuration not stated) | 6.9 µM (inactive) | 16.6 µM (inactive) | 22.1 µM (inactive) | 15 µM (inactive) | 17 µM (inactive) | 23.2 µM (inactive) | 14.6 µM (inactive) | 21.3 µM (inactive) | 23.1 µM (inactive) | 21.7 µM (inactive) | 16.6 µM (inactive) | 22.1 µM (inactive) |  | 2.2 µM (inactive) | 25.8 µM (inactive) | 21.6 µM (inactive) | 23.4 µM (inactive) | 18.1 µM (inactive) | 29.8 µM (inactive) | 16 µM (inactive) |
| CC1=NN(c2cccc(S(=O)(=O)O)c2)C2(C1)C(Cl)C(=O)N2c1nc2ccccc2s1 (configuration not stated) | 5.5 µM (inactive) | 11.3 µM (inactive) | 8.53 µM (inactive) | 15.1 µM (inactive) | 6.47 µM (inactive) | 5.75 µM (inactive) | 1.66 µM (inactive) | 9.23 µM (inactive) | 8.89 µM (inactive) | 13.1 µM (inactive) | 4.61 µM (inactive) | 4.74 µM (inactive) | 8.28 µM (inactive) | 7.87 µM (inactive) |  | 15.7 µM (inactive) | 4.54 µM (inactive) | 9.35 µM (inactive) | 14.2 µM (inactive) | 3.55 µM (inactive) |
| CCN(CC)CCc1c2c(nc3ccccc13)C(=O)c1cccnc1C2=O | 2.4 µM (inactive) | 0.344 µM (active) | 2.89 µM (inactive) | 2.54 µM (inactive) | 0.325 µM (active) | 2.44 µM (inactive) | 1.74 µM (inactive) | 0.857 µM (active) | 0.345 µM (active) | 1.67 µM (inactive) | 3.08 µM (inactive) | 0.726 µM (active) | 2.37 µM (inactive) | 2.44 µM (inactive) |  | 1.8 µM (inactive) | 0.424 µM (active) | 1.96 µM (inactive) | 2.66 µM (inactive) | 1.57 µM (inactive) |

— ChEMBL document CHEMBL1201862, “PubChem BioAssay data set” (2004)
